# Measured values taken from US11008286B2, “Amino mercaptan compound and preparation method therefor and use thereof in protection against radiation” (Institute of Radiation Medicine Chinese Academy of Medical …, priority 2016, dated 2021).
# Where “and” joins values, the source holds several entries; their conditions need not be identical. Equal entries are not always repeated. Structures can show the parent of a compound that is named as a salt. Where two headings read alike, the source gives them in different places.
# Tests used:
# C57 male mice [1] = assay type: in vivo; details: for Survival number/Test number: no irradiation, 30-day
# Experimental: Administration and grouping: Each group was intraperitoneally injected with one corresponding dose of amifostine. • Each group was intraperitoneally injected with one corresponding dose of Example 17 (IP).
# The 30-day survival rate of mice in each group was recorded.
# C57 male mice [2] = assay: Example E2: HE staining of small intestine on the 5th day after local abdominal irradiation; assay type: in vivo
# Experimental: In amifostine group, intraperitoneal injection was performed 30 min before the local abdominal irradiation at 16Gy, wherein amifostine was dissolved in normal saline, 365 mpk.
# In Example 4 group, intraperitoneal injection was performed 30 min before the local abdominal irradiation at 16Gy, wherein Example 4 was dissolved in normal saline, 517 mpk.
# The mice were sacrificed on the 5th day after the irradiation, and the small intestine was taken and sectioned for HE staining.
# C57 male mice [3] = assay: Example G: effect of stereoisomerism on survival rate of mice under 7.5Gy irradiation; assay type: in vivo; details: 200 mg/kg IP 30 min before irradiation
# Text: Laboratory animals: C57 male mice, 19-21 g, purchased from Beijing HFK Bioscience Co. Ltd., license number SCXK (Beijing), 9 mice in each group.
# C57 male mice [4] = assay: Example F: radiation pneumonia, HE staining of right lung on the 60th day after 17Gy X rays; assay type: in vivo
# Experimental: Administration and grouping: Mice were intraperitoneally injected with normal saline, Example 4 (400 mpk), and amifostine (200 mpk) respectively 30 min before irradiation, and the right lungs were irradiated at 17Gy by X rays. The right lungs were taken on the 60th day for HE staining (n=3):
# Two months after irradiation of the unilateral lung, the most important lung manifestation was radiation pneumonia. […] The alveolar structure of mice in the 17Gy group was changed, which was manifested as a large area of inflammatory infiltration of the lung (the blue dots were inflammatory cells), and the alveoli were filled with inflammatory cells.
# C57 male mice [5] = assay: Example D: protective effect on the hematopoietic system after 4Gy irradiation; assay type: in vivo; details: 800 mpk IP 30 min before 4Gy
# Text: The mice were sacrificed on the 15th day after the irradiation, followed by blood collection. Femoral bone marrow cells, spleen and thymus were weighed, and cells were extracted for detecting the peripheral white blood cell (WBC) count, peripheral red blood cell (RBC) count, peripheral hemoglobin (HGB) concentration, peripheral platelet (PLT) count, peripheral blood lymphocyte ratio (LY %), and peripheral blood neutrophil ratio (NE %).
# In addition, the number of leukocytes in bone marrow, ratio of hematopoietic stem cell (LSK) in bone marrow cells, ratio of hematopoietic progenitor cells (HPC) in bone marrow cells, ratio of CD34−LSK in bone marrow cells, and ratio of CD34+LSK in bone marrow cells were detected.
# The effects of irradiation on LSK intracellular reactive oxygen species (ROS) level and HPC intracellular ROS level were also detected.
# C57 male mice [6] = tested on: C57 male mice;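 for survival rate compared with amifostine: mice aged 8-10 weeks, weighing 20-22 g, with deaths logged and survival rate computed on day 30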;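 for survival rates compared with amifostine: mice aged 8-10 weeks, weighing 20-22 g, with deaths logged and survival rate computed on day 30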
# Experimental: Laboratory animals: C57 male mice, 8-10 weeks old, 20-22 g, were divided into 4 groups, 5 or 10 or 15 or 20 or 25 mice in each group.
# Observation index: The death and weight of the mice were recorded, and the survival rate was calculated on the 30th day.
# [7] = cited from earlier work
# [8] = 15th day, vs irradiation control
# [9] = 6.8Gy, 200 mpk IP 30 min before irradiation, day 30
smiles,measurement,setting,value
"CNC(=O)[C@H](CS)NC(=O)[C@H](CS)NC(=O)[C@H](CS)NC [Example 4, (R)-3-mercapto-N—((R)-3-mercapto-1-(((R)-3-mercapto-1-(methylamino)-1-oxopropan-2-yl)amino)-1-oxopropan-2-yl)-2-(methylamino) propanamide trifluoroacetate]",Survival number/Test number,C57 male mice [1]; 400 mpk IP,10/10
same,Survival number/Test number,C57 male mice [1]; 600 mpk IP,5/5
same,Survival number/Test number,C57 male mice [1]; 800 mpk IP,10/10
same,Survival number/Test number,C57 male mice [1]; 900 mpk IP,10/10
same,Survival number/Test number,C57 male mice [1]; 1000 mpk IP,6/6 and 10/10
same,Survival number/Test number,C57 male mice [1]; 1100 mpk IP,8/10
same,Survival number/Test number,C57 male mice [1]; 1200 mpk IP,6/10
same,Survival number/Test number,C57 male mice [1]; 1600 mpk IP,3/10
same,Survival rate,"C57 male mice [1]; male, C57, mouse, in vivo, 1000 mg/kg, 30 day",100%
same,safety compared with amifostine,"C57 male mice [1]; mouse, in vivo",as safe as or even better than amifostine
same,intestinal villi structure (HE staining),C57 male mice [2]; 517 mpk IP 30 min before local abdominal irradiation at 16Gy,slight changes compared with the irradiation group
same,Survival number/Test number,C57 male mice [3],5/9
same,Survival rate,C57 male mice [3],approximately 56%
same,deaths,C57 male mice [3]; 9 mice per group,(4 deaths)
same,inflammatory cell infiltration of lung / incidence of radiation pneumonia,C57 male mice [4]; 400 mpk IP 30 min before 17Gy X rays to right lung,partially relieve inflammatory cell infiltration and reduce the incidence of radiation pneumonia
same,number of leukocytes (WBC) in bone marrow,C57 male mice [5]; 15th day,increased by administration of Example 4 with significant difference
same,ratio of hematopoietic progenitor cells (HPC) in bone marrow cells (HPC %),C57 male mice [5]; 15th day,increased by administration of Example 4 with significant difference
same,ratio of hematopoietic stem cell (LSK) in bone marrow cells (LSK %),C57 male mice [5]; 15th day,increased by administration of Example 4 with significant difference
same,ratio of CD34+LSK in bone marrow cells,"C57 male mice [5]; 15th day, irradiation decreased CD34+LSK %",alleviated this abnormal differentiation with significant difference
same,ratio of CD34−LSK in bone marrow cells,"C57 male mice [5]; 15th day, irradiation increased CD34−LSK %",alleviated this abnormal differentiation with significant difference
same,peripheral blood neutrophil ratio (NE %),"C57 male mice [5]; 15th day, irradiation increased NE %",alleviated this abnormal differentiation with significant difference
same,peripheral blood lymphocyte ratio (LY %),"C57 male mice [5]; 15th day, irradiation reduced LY %",alleviated this abnormal differentiation with significant difference
same,peripheral red blood cell (RBC) count,C57 male mice [5]; [8],increased by administration of Example 4 with significant difference
same,peripheral white blood cell (WBC) count,C57 male mice [5]; [8],increased by administration of Example 4 with significant difference
same,HPC intracellular ROS level,C57 male mice [5]; bone marrow,reduced the ROS levels with significant difference
same,LSK intracellular reactive oxygen species (ROS) level,C57 male mice [5]; bone marrow,reduced the ROS levels with significant difference
same,Survival number/Test number,"C57 male mice [6]; 7.2Gy, 200 mpk IP, day 30",20/25
same,Survival rate,"C57 male mice [6]; 7.2Gy, 200 mpk IP, day 30",80%
same,Survival number/Test number,"C57 male mice [6]; 7.5Gy, 517 mpk IP",9/10
same,Survival rate,"C57 male mice [6]; 7.5Gy, 517 mpk IP",90%
same,Survival number/Test number,"C57 male mice [6]; 7.5Gy, 800 mpk IP",7/10
same,Survival rate,"C57 male mice [6]; 7.5Gy, 800 mpk IP",70%
same,Survival number/Test number,"C57 male mice [6]; 10Gy, 365 mpk IP",15/20
same,Survival rate,"C57 male mice [6]; 10Gy, 365 mpk IP",75%
same,Survival number/Test number,"C57 male mice [6]; 12.5Gy, 365 mpk IP",4/10
same,Survival rate,"C57 male mice [6]; 12.5Gy, 365 mpk IP",40%
same,survival rates compared with amifostine,C57 male mice [6]; absorbed dose 6.8Gy and 7.2Gy,survival rates comparable to those using amifostine
same,survival rate compared with amifostine,"C57 male mice [6]; higher absorbed dose, as high as 12.5Gy",a survival rate equivalent to those using amifostine
"NCCCNCCSP(=O)(O)O [Amifostine, amifostine, reference compound]",Survival number/Test number,C57 male mice [1]; 400 mpk IP,5/5
same,Survival number/Test number,C57 male mice [1]; 600 mpk IP,5/5
same,Survival number/Test number,C57 male mice [1]; 800 mpk IP,3/5
same,Survival number/Test number,C57 male mice [1]; 1600 mpk IP,0/5
same,intestinal villi structure (HE staining),C57 male mice [2]; 365 mpk IP 30 min before local abdominal irradiation at 16Gy,slight changes compared with the irradiation group
same,half-life,[7],7 min
same,inflammatory cell infiltration of lung / incidence of radiation pneumonia,C57 male mice [4]; 200 mpk IP 30 min before 17Gy X rays to right lung,partially relieve inflammatory cell infiltration and reduce the incidence of radiation pneumonia
same,Survival number/Test number,C57 male mice [6]; [9],5/5
same,Survival rate,C57 male mice [6]; [9],100%
same,Survival number/Test number,"C57 male mice [6]; 7.2Gy, 200 mpk IP, day 30",9/10 and 12/15 and 4/5 and 7/10 and 20/25
same,Survival rate,"C57 male mice [6]; 7.2Gy, 200 mpk IP, day 30",90% and 80% and 70%
same,Survival number/Test number,"C57 male mice [6]; 7.5Gy, 200 mpk IP, day 30",5/5 and 4/5 and 1/10
same,Survival number/Test number,"C57 male mice [6]; 7.5Gy, 365 mpk IP",10/10
same,Survival rate,"C57 male mice [6]; 7.5Gy, 365 mpk IP",100%
same,Survival number/Test number,"C57 male mice [6]; 10Gy, 517 mpk IP",15/20
same,Survival rate,"C57 male mice [6]; 10Gy, 517 mpk IP",75%
same,Survival number/Test number,"C57 male mice [6]; 12.5Gy, 517 mpk IP",5/10
same,Survival rate,"C57 male mice [6]; 12.5Gy, 517 mpk IP",50%
